Laboratory results taken from patent US20250313555A1, “2-SUBSTITUTED THIAZOLE AND BENZOTHIAZOLE COMPOSITIONS AND METHODS AS DUX4 INHIBITORS” (ALTAY THERAPEUTICS, INC., priority 2022, published 2025).

Key:
Assay type in all cases: cell-based
DUX4 = target: T1, DUX4 (Homo sapiens, UniProt Q9UBX2); experiment: DUX4 EC50 luciferase reporter protocol in transfected HEK293 cells; conditions: 6 hr
T1 construct: expressed in transfected cells; host or cells: HEK293
Source text: EC50 Protocol This example provides a representative protocol for a single well of a 96-well plate. It can be scaled up as necessary for treatment of multiple wells. For negative controls, a well containing reporter DNA, Renilla DNA, and turbofect (without expression vector) were used. For positive controls, wells containing cells that were not treated with any inhibitor were used. They were transfected with the complete DNA lipid complex as set forth below. The DNA-lipid complex for one well of the 96-well plate is prepared by adding to a tube 100 ng of the transfection factor (TF) expression vector, 100 ng of TF reporter DNA, 10 ng of Renilla reporter DNA, […] Turbofect transfection reagent, and […] of the medium without any serum or penicillin/streptomycin. The combination was mixed by gentle flicking of the tube, and the mixture was pipetted into a well of a 96-well plate. The plate was then gently tapped to spread the combination evenly on the bottom of the well. The well was incubated for 30 min. HEK293 cells were grown until 80% confluent in DMEM supplemented with 10% fetal bovine serum, 1% penicillin streptomycin, and 1% amphotericin B. The adherent cells growing on a 10 cm plate were trypsinized with 1 mL of prewarmed trypsin. Once the cells detached from the plate, 10 mL of medium was added, and the cells were strained through a […] cell strainer. The cells were counted using a mixture of 10 mL cell suspension with 10 mL of trypan blue. Once the total number of cells are counted, a dilution of 150 k/mL was prepared. After incubation of the transfection complex was complete, […] of HEK293s (23.25 k total cells) were gently dispensed on top of the wells containing the 25 mL transfection complex, producing a total volume of about 180 mL. The mixture was then incubated for 24 h. To treat cells with each inhibitor, the inhibitors were prepared in the same growth medium. In a deep well block, the regular medium with serum was added to well 1 (135 mL) and to wells 2 through 10 (100 mL). To the first well was added 15 mL of 10 nM inhibitor. The final concentration of the drug in well 1 was 1 nM. The wells were pipeted up and down, and 50 mL was transferred from well 1 to well 2 (1/3 dilution). The well was mixed, and the seriation dilution was repeated with the remaining wells. Once the serial dilution was complete, using a multichannel pipet, 20 mL of each inhibitor were transferred to designated wells in a 96-well plate. […] Before the assay, a sufficient amount of 1× passive lysis buffer was prepared. The luciferase substrate buffer (Promega) was thawed completely and then mixed with the lyophilized luciferase substrate. The stop buffer (Promega) was also completely thawed. (1) Cell lysis: After treatment of the cells was complete, all the cell media is removed by flipping the 96-well plate over and tapping it dry on a dry paper towel. Immediately afterwards, the 1× passive lysis buffer (25 μL) was added. The plates were then placed on a rocker for 15 minutes at medium speed. (2)Measuring luciferase signal: The luciferase substrate solution for all wells was placed in a solution basin. The luciferase substrate solution was then added to every well (100 μL/well) using a multichannel pipette. The total luminescence was then read immediately using a plate reader. (3)Measuring Renilla signal: The “complete stop solution” was prepared in a solution basin by mixing the buffer with the 50× stop solution substrate (Promega) to make the final 1× solution. The complete stop solution was added to each well (50 μL/well) using a multichannel pipette. The total luminescence was then read immediately using a plate reader. Using a spreadsheet (e.g., Excel), the luciferase signal was divided by the renilla signal to get a relative luciferase unit.

[1] = Cell cytotoxicity 50 assay (CC50), HEK cells; conditions: human
In short: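 CC50 was fitted from total luminescence, measured 5 min after adding CellTiter-Glo reagent to HEK cells. The cells had been exposed for 72 h at 37 °C to medium serial dilutions prepared from a 10 mM drug solution.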

[2] = Cell cytotoxicity 50 assay (CC50), MB200 cells, cell titer glo; conditions: human
In short: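 Luminescence from CellTiter-Glo after 72 h of compound exposure at 37 °C gave the CC50 for MB200 cells. These were plated at 10 k cells/well in triplicate in supplemented F10 medium and treated with a serial dilution series prepared from a 10 mM stock.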

MBD3L2 RNA = experiment: RNA isolation and qPCR to determine MBD3L2 RNA levels in FSHD cells; conditions: 48 hrs
In short: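 FSHD cells were treated one day after seeding with a DUX4 inhibitor (11 μM or 3.6 μM) for 48 h. Total RNA was DNase-treated and reverse-transcribed with random hexamers and M-MLV. MBD3L2 was quantified by SYBR Green qPCR in triplicate against EEF1A as the reference gene.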

T1 sequence (Q9UBX2 whole entry): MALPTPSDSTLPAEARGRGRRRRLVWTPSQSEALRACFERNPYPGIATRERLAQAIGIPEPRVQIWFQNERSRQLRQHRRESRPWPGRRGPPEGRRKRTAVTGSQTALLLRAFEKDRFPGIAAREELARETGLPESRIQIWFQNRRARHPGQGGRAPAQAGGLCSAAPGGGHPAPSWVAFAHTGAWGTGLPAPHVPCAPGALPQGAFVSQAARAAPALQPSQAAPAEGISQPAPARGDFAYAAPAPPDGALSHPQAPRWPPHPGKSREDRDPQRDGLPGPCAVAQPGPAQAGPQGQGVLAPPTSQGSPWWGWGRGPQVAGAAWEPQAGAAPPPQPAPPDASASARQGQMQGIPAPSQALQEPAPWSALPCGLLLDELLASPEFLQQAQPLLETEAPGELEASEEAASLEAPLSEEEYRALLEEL

## CC(=O)NCCCN(C)C(=O)[C@H]1CC[C@H](c2nc3ccccc3s2)C1 [Compound 154]
DUX4
  EC50: > 10 µM
[1]
  CC50 at 72 h: > 10 µM
[2]
  CC50 at 72 h: > 10 µM

## O=C1CCC(=O)N1[C@H]1C[C@@H](C(=O)Nc2ccc(-c3nc4ccccc4s3)cc2)C1 [Compound 95]
DUX4
  EC50: > 10 µM
[1]
  CC50 at 72 h: > 10 µM
[2]
  CC50 at 72 h: > 10 µM

## CC(=O)NCCCC(=O)N[C@@H]1CCC[C@H]1c1nc2ccccc2s1 [Compound 137]
DUX4
  EC50: > 10 µM
[1]
  CC50 at 72 h: > 10 µM
[2]
  CC50 at 72 h: > 10 µM

## O=C(CCC(=O)c1cccs1)Nc1ccc(-c2nc3ccccc3s2)cc1 [Compound 25]
DUX4
  EC50: > 10 µM
[1]
  CC50 at 72 h: > 10 µM
[2]
  CC50 at 72 h: > 10 µM

## CC(=O)NCCCC(=O)N[C@H]1CCC[C@H]1c1nc2ccccc2s1 [Compound 136]
DUX4
  EC50: > 10 µM
[1]
  CC50 at 72 h: > 10 µM
[2]
  CC50 at 72 h: > 10 µM

## O=C(CCN1C(=O)CCC1=O)Nc1ccc(C(=O)c2nc3ccccc3s2)cc1 [Compound 69]
DUX4
  EC50: > 10 µM
[1]
  CC50 at 72 h: > 10 µM
[2]
  CC50 at 72 h: 1 to 10 µM

## CC(=O)NCCCC(=O)Nc1coc(-c2nccs2)c1 [Compound 79]
DUX4
  EC50: > 10 µM
[1]
  CC50 at 72 h: > 10 µM
[2]
  CC50 at 72 h: > 10 µM

## O=C(CCCN1C(=O)CCC1=O)N[C@H]1CC[C@@H](c2nc3ccccc3s2)C1 [Compound 160]
DUX4
  EC50: > 10 µM
[1]
  CC50 at 72 h: > 10 µM
[2]
  CC50 at 72 h: > 10 µM

## O=C(CCCCN1C(=O)CCC1=O)NC1CCC(c2nc3ccccc3s2)CC1 (stereo not drawn) [Compound 143]
DUX4
  EC50: > 10 µM
[1]
  CC50 at 72 h: > 10 µM
[2]
  CC50 at 72 h: > 10 µM

## CC(=O)NCCCC(=O)Nc1ccc(Cc2nc3ccccc3s2)cc1 [Compound 80]
DUX4
  EC50: > 10 µM
[1]
  CC50 at 72 h: > 10 µM
[2]
  CC50 at 72 h: > 10 µM

## CC(=O)NCCCNC(=O)[C@H]1CC[C@H](c2nc3ccccc3s2)C1 [Compound 166]
DUX4
  EC50: > 10 µM
[1]
  CC50 at 72 h: > 10 µM
[2]
  CC50 at 72 h: > 10 µM

## CN(C(=O)CCCN1C(=O)CCC1=O)C1CCC(c2nc3ccccc3s2)C1 (stereo not drawn) [Compound 147]
DUX4
  EC50: > 10 µM
[1]
  CC50 at 72 h: > 10 µM
[2]
  CC50 at 72 h: > 10 µM

## CC(=O)NCCCCC(=O)NC1CCC(c2nc3ccccc3s2)CC1 (stereo not drawn) [Compound 139]
DUX4
  EC50: > 10 µM
[1]
  CC50 at 72 h: > 10 µM
[2]
  CC50 at 72 h: > 10 µM

## O=C(CCN1C(=O)CCC1=O)Nc1ccc(-c2ccc3ncsc3c2)cc1 [Compound 43]
DUX4
  EC50: > 10 µM
[1]
  CC50 at 72 h: > 10 µM
[2]
  CC50 at 72 h: > 10 µM

## CC(=O)NCCCNC(=O)c1cc(F)cc(-c2nc3cc(F)ccc3s2)c1 [Compound 180]
DUX4
  EC50: > 10 µM
[1]
  CC50 at 72 h: > 10 µM
[2]
  CC50 at 72 h: > 10 µM

## CC(=O)NCCCC(=O)Nc1cc(F)cc(-c2nc3cc(F)ccc3s2)c1 [Compound 181]
DUX4
  EC50: > 10 µM
[1]
  CC50 at 72 h: > 10 µM
[2]
  CC50 at 72 h: > 10 µM

## O=C(CCCN1C(=O)CCC1=O)N[C@H]1CC[C@H](c2nc3ccccc3s2)C1 [Compound 128]
DUX4
  EC50: > 10 µM
[1]
  CC50 at 72 h: > 10 µM
[2]
  CC50 at 72 h: > 10 µM

## O=C1CCC(CCC(=O)N[C@H]2CC[C@@H](c3nc4ccccc4s3)CC2)N1 (stereo partly drawn) [Compound 186]
DUX4
  EC50: > 10 µM
[1]
  CC50 at 72 h: > 10 µM
[2]
  CC50 at 72 h: > 10 µM

## CC(=O)NCCCN(C)C(=O)[C@@H]1CC[C@H](c2nc3ccccc3s2)C1 [Compound 153]
DUX4
  EC50: > 10 µM
[1]
  CC50 at 72 h: > 10 µM
[2]
  CC50 at 72 h: > 10 µM

## CC(=O)NCCC(=O)Nc1ccc(-c2nc3cc(C#N)ccc3s2)cc1 [Compound 103]
MBD3L2 RNA
  qPCR MBD3L2 Inhib at 11 µM: YES
[1]
  CC50 at 72 h: > 10 µM
[2]
  CC50 at 72 h: > 10 µM

## O=C(CC1CCCC1)Nc1ccc(-c2nc3ccccc3s2)cc1 [Compound 21]
MBD3L2 RNA
  qPCR MBD3L2 Inhib at 11 µM: YES
[1]
  CC50 at 72 h: > 10 µM
[2]
  CC50 at 72 h: > 10 µM

## CC(=O)NCCCNC(=O)c1ccc(-c2nc3cc(F)ccc3s2)cc1 [Compound 74]
MBD3L2 RNA
  qPCR MBD3L2 Inhib at 11 µM: YES
[1]
  CC50 at 72 h: > 10 µM
[2]
  CC50 at 72 h: > 10 µM

## O=C(CCCN1C(=O)CCC1=O)Nc1ccc(-c2nc3c(s2)CCCC3)cc1 [Compound 88]
MBD3L2 RNA
  qPCR MBD3L2 Inhib at 11 µM: YES
[1]
  CC50 at 72 h: > 10 µM
[2]
  CC50 at 72 h: > 10 µM

## CC(=O)NCCCC(=O)N(C)c1ccc(-c2nc3cc(F)ccc3s2)cc1 [Compound 145]
MBD3L2 RNA
  qPCR MBD3L2 Inhib at 11 µM: YES
[1]
  CC50 at 72 h: > 10 µM
[2]
  CC50 at 72 h: > 10 µM

## CC(=O)NCCCCC(=O)Nc1ccc(-c2nc3ccccc3s2)o1 [Compound 175]
MBD3L2 RNA
  qPCR MBD3L2 Inhib at 11 µM: YES
[1]
  CC50 at 72 h: > 10 µM
[2]
  CC50 at 72 h: > 10 µM

## CC(=O)NC/C=C/C(=O)Nc1ccc(-c2nc3ccccc3s2)cc1 [Compound 77]
MBD3L2 RNA
  qPCR MBD3L2 Inhib at 11 µM: YES
[1]
  CC50 at 72 h: > 10 µM
[2]
  CC50 at 72 h: > 10 µM

## O=C(CCCN1C(=O)CCC1=O)Nc1ccc(-c2nc3ccccc3s2)cc1 [Compound 41]
MBD3L2 RNA
  qPCR MBD3L2 Inhib at 11 µM: YES
[1]
  CC50 at 72 h: > 10 µM
[2]
  CC50 at 72 h: > 10 µM

## O=C(CCCc1cccnc1)Nc1ccc(-c2nc3ccccc3s2)o1 [Compound 75]
MBD3L2 RNA
  qPCR MBD3L2 Inhib at 11 µM: YES
[1]
  CC50 at 72 h: > 10 µM
[2]
  CC50 at 72 h: > 10 µM

## CC(=O)NCCCC(=O)Nc1cnc(-c2nc3ccccc3s2)nc1 [Compound 59]
MBD3L2 RNA
  qPCR MBD3L2 Inhib at 11 µM: YES
[1]
  CC50 at 72 h: > 10 µM
[2]
  CC50 at 72 h: > 10 µM

## O=C(CCN1CCCC1=O)Nc1ccc(-c2nc3ccccc3s2)cc1 [Compound 18]
MBD3L2 RNA
  qPCR MBD3L2 Inhib at 11 µM: YES
[1]
  CC50 at 72 h: > 10 µM
[2]
  CC50 at 72 h: > 10 µM

## O=C(CCc1cnco1)Nc1ccc(-c2nc3ccccc3s2)cc1 [Compound 33]
MBD3L2 RNA
  qPCR MBD3L2 Inhib at 11 µM: YES
[1]
  CC50 at 72 h: > 10 µM
[2]
  CC50 at 72 h: > 10 µM

## CC(=O)NCCCC(=O)Nc1ccc(-c2nc3ccc(C)cc3s2)cc1 [Compound 15]
MBD3L2 RNA
  qPCR MBD3L2 Inhib at 11 µM: YES
[1]
  CC50 at 72 h: > 10 µM
[2]
  CC50 at 72 h: > 10 µM

## O=C(CCCc1cnco1)Nc1ccc(-c2nc3ccccc3s2)nc1 [Compound 81]
MBD3L2 RNA
  qPCR MBD3L2 Inhib at 11 µM: YES
[1]
  CC50 at 72 h: > 10 µM
[2]
  CC50 at 72 h: > 10 µM
